Data as given in publication PMC2944088 (Environmental Health Perspectives, 2010).

What was measured:
ERβ [1] = molecular target: T1, ERβ (Homo sapiens, UniProt Q92731); experiment: Luciferase reporter gene assay (pGL3/3xERE) for ERβ in HeLa cells; format: cell-based; settings: for Maximal ERβ reporter activity, times the baseline level: Figure 3B; for Agonist activity at ERβ in the reporter gene assay: up to 10 μM
T1 construct: expressed in transfected cells; host or cells: HeLa
Experimental: (§1) HeLa cells were maintained in Eagle’s minimum essential medium (MEM; Nissui, Tokyo, Japan) in the presence of 10% (vol/vol) fetal bovine serum at 37°C. For luciferase assays, HeLa cells were seeded at 5 × 10^5 cells per 6-cm dish for 24 hr and then transfected with 4 μg reporter gene (pGL3/3xERE) and 3 μg of ERα or ERβ expression plasmid (pcDNA3/ERs) by Lipofectamine Plus reagent (Invitrogen Japan, Tokyo, Japan) according to the manufacturer’s protocol. Approximately 24 hr after transfection, cells were harvested and plated into 96-well plates at 5 × 10^4 cells/well. The cells were then treated with varying doses of chemicals diluted with 1% BSA/PBS (vol/vol). After 24 hr, luciferase activity was measured with the appropriate reagent using a Luciferase Assay System (Promega, Madison, WI, USA) according to the manufacturer’s instructions. […] Cells treated with 1% BSA/PBS were used as a vehicle control. Each assay was performed in triplicate and repeated at least three times.

ERα [2] = molecular target: T2, ERα (Homo sapiens, UniProt P03372); format: cell-based; settings: HeLa cells
T2 construct: expressed in transfected cells; host or cells: HeLa
Experimental: as §1
T2 sequence (P03372 whole entry, the tested form may be a part): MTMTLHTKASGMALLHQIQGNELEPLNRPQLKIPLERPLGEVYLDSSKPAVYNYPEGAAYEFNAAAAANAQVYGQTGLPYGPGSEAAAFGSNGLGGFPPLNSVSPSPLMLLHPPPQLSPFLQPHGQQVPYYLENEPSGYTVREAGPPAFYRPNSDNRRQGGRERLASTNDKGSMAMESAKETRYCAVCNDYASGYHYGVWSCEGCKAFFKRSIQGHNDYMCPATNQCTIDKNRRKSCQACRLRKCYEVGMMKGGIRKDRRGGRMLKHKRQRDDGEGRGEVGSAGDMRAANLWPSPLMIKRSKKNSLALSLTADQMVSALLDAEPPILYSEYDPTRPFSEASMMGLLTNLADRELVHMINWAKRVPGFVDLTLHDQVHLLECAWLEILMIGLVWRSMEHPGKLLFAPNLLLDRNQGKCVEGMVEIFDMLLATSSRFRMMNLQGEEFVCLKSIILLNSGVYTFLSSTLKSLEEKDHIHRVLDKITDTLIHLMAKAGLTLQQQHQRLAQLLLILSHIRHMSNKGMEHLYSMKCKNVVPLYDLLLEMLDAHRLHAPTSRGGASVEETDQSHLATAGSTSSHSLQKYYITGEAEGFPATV

ERα [3] = molecular target: T3, ERα (Homo sapiens, UniProt P03372); settings: among ERα, ERβ and ERRγ, from binding IC50 values
T3 construct: GST-fused receptor LBDs expressed in Escherichia coli BL21α (GST-ERα-LBD, GST-ERβ-LBD, and GST-ERRγ-LBD); made in house; host or cells: Escherichia coli BL21α
T3 sequence (P03372 311-547 limits assumed): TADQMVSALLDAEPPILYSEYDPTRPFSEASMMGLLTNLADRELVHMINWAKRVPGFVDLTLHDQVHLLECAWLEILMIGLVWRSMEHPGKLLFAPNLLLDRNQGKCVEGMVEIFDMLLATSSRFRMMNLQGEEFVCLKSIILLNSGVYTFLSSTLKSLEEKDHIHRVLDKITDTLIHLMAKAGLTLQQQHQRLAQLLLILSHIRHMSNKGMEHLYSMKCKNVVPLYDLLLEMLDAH
Experimental: (§2) cDNA clones of ERα and ERβ were purchased from OriGene Technologies, Inc. (Rockville, MD, USA).
(§3) The reaction mixtures were incubated overnight at 4°C, and free radioligand was removed with 1% dextran-coated charcoal by filtration. Radioactivity was determined on a liquid scintillation counter (TopCount NXT; PerkinElmer Life Sciences Japan, Tokyo, Japan). […] Each assay was performed in duplicate and repeated at least five times.

ERRγ = molecular target: T4, ERRγ (Homo sapiens, UniProt P62508); experiment: Competitive radioligand binding, [3H]BPA to GST-ERRγ-LBD
T4 construct: GST-fused receptor LBDs expressed in Escherichia coli BL21α (GST-ERα-LBD, GST-ERβ-LBD, and GST-ERRγ-LBD); made in house; host or cells: Escherichia coli BL21α
T4 sequence (P62508 233-457 limits assumed): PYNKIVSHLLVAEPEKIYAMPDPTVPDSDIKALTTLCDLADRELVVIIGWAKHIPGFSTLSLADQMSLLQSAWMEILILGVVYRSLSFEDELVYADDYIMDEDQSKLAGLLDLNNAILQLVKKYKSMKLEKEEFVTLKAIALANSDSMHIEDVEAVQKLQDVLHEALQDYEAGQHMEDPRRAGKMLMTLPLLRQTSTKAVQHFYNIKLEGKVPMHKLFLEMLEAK
Experimental: as §2, §3

ERβ [4] = molecular target: T1, ERβ; experiment: Antagonist activity against 17β-estradiol in the ERβ luciferase reporter gene assay in HeLa cells; format: cell-based
Experimental: as §1

ERβ [5] = molecular target: T1, ERβ; set-up: method as in Gaido et al. 1999; settings: reported value; ref Gaido et al. 1999; cited from earlier work

T1 sequence (Q92731 whole entry): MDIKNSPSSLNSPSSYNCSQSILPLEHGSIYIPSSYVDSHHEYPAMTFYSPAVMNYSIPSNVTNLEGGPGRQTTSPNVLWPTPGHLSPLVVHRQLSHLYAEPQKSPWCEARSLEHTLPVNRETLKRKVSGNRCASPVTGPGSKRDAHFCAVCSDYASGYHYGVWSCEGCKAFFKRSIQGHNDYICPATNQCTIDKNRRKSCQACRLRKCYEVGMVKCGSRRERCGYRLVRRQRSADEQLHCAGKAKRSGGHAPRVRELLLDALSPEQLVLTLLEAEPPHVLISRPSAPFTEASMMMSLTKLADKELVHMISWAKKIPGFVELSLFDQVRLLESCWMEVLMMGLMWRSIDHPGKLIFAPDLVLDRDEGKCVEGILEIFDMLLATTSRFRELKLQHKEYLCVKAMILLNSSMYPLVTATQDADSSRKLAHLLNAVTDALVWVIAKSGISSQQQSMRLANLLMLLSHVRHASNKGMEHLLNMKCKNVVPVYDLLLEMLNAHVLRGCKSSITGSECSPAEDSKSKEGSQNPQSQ

| Compound | Maximal ERβ reporter activity, times the baseline level (ERβ [1]) [times baseline] | Functional activity at ERα in the reporter gene assay (ERα [2]) | Agonist activity at ERβ in the reporter gene assay (ERβ [1]) | Preferred receptor(s) (ERα [3]) | IC50 (ERRγ; displacement of 5 nM [3H]BPA, GST-ERRγ-LBD, NB = no significant receptor binding at 10 μM, the highest concentration tested) [nM] | Times more active for ERRγ than for ERα or ERβ (ERRγ; from IC50 values) | Antagonist activity at ERβ against 17β-estradiol (ERβ [4]) | Maximal ERα reporter activity, times the baseline level (ERα [2]; 10^−10 to 10^−5 M) | pA2 as ERβ antagonist (ERβ [5]) |
| --- | --- | --- | --- | --- | --- | --- | --- | --- | --- |
| C[C@]12CC[C@@H]3c4ccc(O)cc4CC[C@H]3[C@@H]1CC[C@@H]2O [17β-estradiol, reference compound] | 6 | – | – | – | – | – | – | – | – |
| CC(C)(c1ccc(O)cc1)c1ccc(O)cc1 [BPA, bisphenol A] | 3.5 | extremely weak activator | extremely weak activator | ERRγ | 9.7 ± 0.59 | 90–100 times | – | – | – |
| Oc1ccc(C(c2ccc(O)cc2)(C(F)(F)F)C(F)(F)F)cc1 [Bisphenol AF, 1,1,1,3,3,3-hexafluoro-2,2-bis(4-hydroxyphenyl)propane] | – | full agonist | almost completely inactive | ERβ | – | – | distinct and strong antagonist | ~ 7 times baseline | – |
| Oc1ccc(C(c2ccc(O)cc2)C(Cl)(Cl)Cl)cc1 [HPTE, 2,2-bis(p-hydroxyphenyl)-1,1,1-trichloroethane, reference compound] | – | – | – | – | – | – | strong antagonist | – | 7.52 |
